EPA's ToxValDB 9.5
≈ marks a conversion by molar mass, not a printed value. Where “and” joins values, the source holds several entries; their conditions need not be identical. Equal entries are not always repeated. Structures can show the parent of a compound that is named as a salt.

Columns and labels:
[1] = system: Oryctolagus sp.; details: for LD50: acute
[2] = system: Rattus norvegicus; details: for LC50 / LD50: acute
[3] = system: Rattus norvegicus; assay: LC100; higher = less toxic; details: acute, inhalation
[4] = system: Homo sapiens; details: clinical; duration: 1 days; inhalation; nose only; unknown; respiratory
[5] = system: Cricetulus sp.; details: duration: 5 days, oral, gavage, Hamster
[6] = system: Mus musculus; details: acute, oral
[7] = system: Canidae; details: chronic, oral, M/F, Dog Other
[8] = system: Canidae; details: chronic, oral, Dog Other
[9] = system: Rattus norvegicus; assay: LD0; higher = less toxic; details: acute; dermal; semiocclusive; Sprague-Dawley
[10] = system: Monkey; details: duration: 13 weeks, oral, flavoured beverage, F, Cynomolgus, Estrogenic effects on maturation of vaginal epithelial cells
[11] = system: Rattus norvegicus; details: chronic; inhalation; M/F; liver focal vacuolization and nodules
[12] = system: Rattus norvegicus; details: inhalation, intermittent
[13] = system: Homo sapiens; details: clinical; Induction of resistant enterobacteriaceae
[14] = system: Oryctolagus sp.; assay: LD0; higher = less toxic; details: acute; dermal; semiocclusive; New Zealand
[15] = system: Rattus norvegicus; details: subchronic; duration: 90 days; oral; drinking water; M/F; Fischer 344; renal
[16] = system: Homo sapiens; details: clinical; duration: 10 weeks; oral; drinking water; Cardiovascular system: Increased blood pressure
[17] = system: Canidae; details: oral, capsule, M/F, Histopathological changes in the spleen and bone marrow indicative of anaemia
[18] = system: Rattus norvegicus; details: duration: 2 years, oral, M/F, Crl, Reduced bodyweight gain
[19] = system: Homo sapiens; details: clinical; oral; Hematologic
[20] = system: Mus musculus; details: uterotrophic; duration: 3 days; injection; subcutaneous; Active
[21] = system: Rattus norvegicus; details: for LEL: uterotrophic, injection, subcutaneous, Active
[22] = short-term, duration: 8 days, oral, gavage, Sprague-Dawley
[23] = duration: 12 months, diet, increased relative liver weight in male dogs
[24] = short-term, inhalation, New Zealand
[25] = short-term, inhalation, M, Sprague-Dawley
[26] = Hershberger, duration: 10 days, oral, gavage, Sprague-Dawley, active + Androgenic + Negative + androgenic

In the case of CCOS(=O)(=O)OCC [Ethyl sulfate (Et2SO4)], the LD50 ([1]; dermal) is reported as 706 mg/kg, the LC50 ([2]; inhalation) is reported as ≥ 1580 mg/m3 and ≤ 3150 mg/m3 and the LD50 ([2]; injection, subcutaneous) is reported as 350 mg/kg. The LD50 ([2]; oral) was 880 mg/kg and the LC100 [3] was 3150 mg/m3.

Work on FF [Fluorine] yielded an NOAEL [4] of 15.5 mg/m3.

Work on COC(=O)CCSCCC(=O)OC [Dimethyl 3,3'-thiodipropionate] yielded an NOAEL ([5]; developmental) of 1600 mg/kg-day, an NOAEL ([5]; reproduction developmental, F) of 1600 mg/kg-day and an LD50 [6] greater than 2000 mg/kg. For the same molecule, the NOAEL ([1]; developmental, duration: 13 days, oral, gavage, Dutch-belted) was 1000 mg/kg-day, the LD50 ([2]; oral) was greater than 2500 mg/kg and the NOAEL ([2]; reproduction developmental, duration: 13 weeks, oral, gavage, Sprague-Dawley) was 350 mg/kg-day. It also gave an NOAEL ([2]; reproduction developmental, duration: 10 days, oral, gavage, F, Wistar) of 1600 mg/kg-day and an NOAEL ([2]; subchronic, duration: 13 weeks, oral, gavage, Sprague-Dawley) of 350 mg/kg-day.

In the case of CC(Oc1cc(Cl)c(Cl)cc1Cl)C(=O)O (configuration not stated) [2-(2,4,5-Trichlorophenoxy)propionic acid], the LOAEL ([7]; histopathological liver) is reported as 2.5 mg/kg-day, the NOEL ([7]; histopathological liver) is reported as 0.75 mg/kg-day and the NOEL ([8]; duration: 2 years, diet, Liver: Histopathology) is reported as 0.75 mg/kg-day.

CC(C)C(C)(C)C(C)(C)C(C)(C)SSSSSC(C)(C)C(C)(C)C(C)(C)C(C)C [Di-tert-Dodecyl pentasulfide] showed an NOAEL ([2]; developmental, duration: 6 days, oral, gavage, Sprague-Dawley) of 1000 mg/kg-day, an NOAEL ([2]; reproduction developmental, duration: 6 days, oral, gavage, F, Sprague-Dawley) of 1000 mg/kg-day and an LOAEL [2, 22] of 2500 mg/kg-day. The NOAEL [2, 22] was 1250 mg/kg-day, the NOAEL ([2]; short-term, duration: 28 days, oral, gavage, Sprague-Dawley) was 1000 mg/kg-day and the LD0 [9] was no less than 2000 mg/kg.

For CCSC(=O)N(CC(C)C)CC(C)C [Butylate], the LOAEL [7, 23] was 25 mg/kg-day, the NOAEL [7, 23] was 5 mg/kg-day and the NOEL ([8]; duration: 12 months, capsule, Liver: Increased relative weight) was 5 mg/kg-day.

CC1CCCC(O)CCCCCc2cc(O)cc(O)c2C(=O)O1 (configuration not stated) gave an NOEL [10] of 0.05 mg/kg-day and an NOEL ([10]; subchronic) of 0.05 mg/kg-day.

With CC(C)[N+](=O)[O-] [2-Nitropropane] the LD50 ([6]; CD1) was 393 mg/kg and ≥ 346 mg/kg and ≤ 446 mg/kg, the LD50 ([1]; dermal) was greater than 200 mg/kg and the LD50 ([1]; dermal, New Zealand) was greater than 2000 mg/kg. For the same molecule, the LD50 ([1]; oral, gavage) was ≥ 500 mg/kg and ≤ 750 mg/kg, the LOAEL [1, 24] was 754 mg/m3 and the NOAEL [1, 24] was 98.4 mg/m3. The LC50 ([2]; inhalation, Sprague-Dawley) was 2620 mg/m3 and 1460 mg/m3, the LC50 ([2]; inhalation, Wistar) was ≥ 12.1 µg/mL and ≤ 14.4 µg/mL and the NOAEL ([2]; developmental, duration: 15 days, injection, Intraperitoneal, Sprague-Dawley) was less than 170 mg/kg-day. It also gave an NOAEL ([2]; reproduction developmental, duration: 15 days, injection, Intraperitoneal, F, Sprague-Dawley) of 170 mg/kg-day, an LOAEL [2, 25] of 754 mg/m3 and an NOAEL [2, 25] of 98.4 mg/m3. The LOAEL [11] was 78 mg/m3, the LOAEL ([12]; chronic, duration: 22 months, Liver: Lesions) was 78 mg/m3 and the LC100 ([3]; Wistar) was 53600 mg/m3.

Work on CN(C)[C@@H]1C(=O)C(C(N)=O)=C(O)[C@@]2(O)C(=O)C3=C(O)c4c(O)ccc(Cl)c4[C@@](C)(O)[C@H]3C[C@@H]12 [Chlortetracycline] yielded an LOEL [13] of 20 mg/day and an NOEL [13] of 2 mg/day.

For O=[N+]([O-])C(CO)(CO)CO [2-(Hydroxymethyl)-2-nitro-1,3-propanediol], the LC50 ([2]; Inhalation, Sprague-Dawley) was 2.4 µg/mL (≈ 15.9 µM), the LC50 ([2]; inhalation, particle, Sprague-Dawley) was greater than 2.12 µg/mL and the LD50 ([2]; oral, gavage) was ≥ 990 mg/kg and ≤ 1000 mg/kg. For the same molecule, the LD0 [14] was greater than 2000 mg/kg and the LD0 [9] was greater than 5000 mg/kg.

With [Ba] [Barium] the NOAEL [15] was 65 mg/kg-day, the NOAEL [16] was 0.21 mg/kg-day and the NOEL ([12]; developmental, duration: 4 months, Fetus: Fetotoxicity) was 0.8 mg/m3.

Molecule c1ccc2[nH]c(-c3cscn3)nc2c1 [Thiabendazole] has an NOEL ([17]; chronic, duration: 1 years, Beagle) of 10 mg/kg-day, an NOEL ([17]; chronic, duration: 1 years, Dog Other) of 10 mg/kg-day and an NOEL ([17]; duration: 1 year, Beagle) of 10 mg/kg-day. For the same molecule, the NOEL ([17]; duration: 1 year, Dog Other) was 10 mg/kg-day, the LOEL ([18]; chronic, diet) was 40 mg/kg-day and the NOEL ([18]; chronic, diet) was 10 mg/kg-day. For the same molecule, the LOEL ([18]; feed) was 40 mg/kg-day and the NOEL ([18]; feed) was 10 mg/kg-day.

O=[N+]([O-])OCC(CO[N+](=O)[O-])O[N+](=O)[O-] [Trinitroglycerin] was tested, and the LOAEL [19] was 0.036 mg/kg-day.

For C[C@]12CC[C@H]3C(=CCc4cc(O)ccc43)[C@@H]1CCC2=O [Equilin], the “LEL (gamma)” value [20] was 1 and 3, the LOEL [21, 26] was 2 mg/kg-day and the NOEL [21, 26] was 0.5 mg/kg-day. It also gave an LEL ([21]; duration: 3 days) of 2 mg/kg-day and an LEL ([21]; duration: 7 days) of 0.00025 mg/day.
